30 compounds from patent US7067538B2, “MCP-1 receptor antagonists and methods of use thereof” (Warner-Lambert Company, LLC, priority 2002, dated 2006) can be followed below.

For orientation: melting point means the temperature of the solid-liquid transition. The term IC50 denotes the concentration needed to halve the response being measured.

The subject of series [1] is MCP-1 response in THP-1 cells. In words: Calcium flux in THP-1 cells stimulated with human MCP-1 (FLIPR). The series is classed as cell-based. The settings on record: read-out: Calcium Flux IC50. The protocol:
Compounds of were evaluated for their effect on calcium flux using methodology known in the art, e.g., Neote et al., Cell 1993, 72:415–425. Briefly, THP-1 cells were incubated with the fluorescence dye FLUO-4 for 1 hour, the cells were washed after this loading period, resuspended in HANKs buffer, and loaded into a 384-well plate. The cells were then incubated in the presence of a compound of Example 1–12, 14, 18, 22–23, 27–28, 30, or [bis-(4-chloro-phenyl)-methanesulfonyl]-acetic acid methyl ester. After a 30-minute incubation period, the cells were stimulated with 33 nM human MCP-1 and the calcium flux response recorded and quantified with a FLIPR^384® (384-well Fluorometric Imaging Plate Reader) ([…], Sunnyvale, Calif.). The IC50's (μM) of the inhibition of the maximal MCP-1 response are set out in Table 1.
(A change in cytosolic calcium serves as a functional read-out for many receptors and channels.)

Series [2] deals with T1, MCP-1 receptor (300-19 cell membranes) (Homo sapiens, UniProt P41597).
T1 construct: host or cells: 300-19 cells (membrane preparation)
T1 sequence (P41597 whole entry): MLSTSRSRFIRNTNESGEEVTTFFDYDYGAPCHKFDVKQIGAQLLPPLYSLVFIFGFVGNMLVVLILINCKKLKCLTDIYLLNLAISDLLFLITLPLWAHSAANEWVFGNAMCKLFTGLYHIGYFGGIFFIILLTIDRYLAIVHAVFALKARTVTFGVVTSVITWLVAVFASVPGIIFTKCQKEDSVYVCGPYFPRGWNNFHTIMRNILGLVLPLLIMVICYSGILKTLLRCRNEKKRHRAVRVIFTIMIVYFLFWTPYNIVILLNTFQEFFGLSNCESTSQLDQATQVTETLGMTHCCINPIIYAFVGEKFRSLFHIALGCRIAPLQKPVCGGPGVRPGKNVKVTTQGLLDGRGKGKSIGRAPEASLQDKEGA
In words: Inhibition of binding of 125I-MCP-1 to 300-19 cell membranes. The protocol: Compounds were also assayed for their ability to inhibit the binding of radiolabeled MCP-1 to cell membranes. The materials and methods are set out below.
Membrane Preparation. 300-19 cells were harvested by centrifugation and washed with PBS (Dulbecco's phosphate-buffered saline w/o Ca and Mg). Cells were frozen at −80° C. overnight then resuspensed in ice cold lysis buffer (5 mM HEPES, 2 mM EDTA, 10 μg/mL of leupeptin, aprotinin, and chymostatin, and 200 μg/mL PMSF). The cell suspension was centrifuged at 1,000 rpm for 10 minutes and the supernatant was transferred and centrifuged at 14,000 rpm for 45 minutes at 4° C. then discarded. The resulting pellet was resuspended in stock buffer (10 mM HEPES, 300 mM sucrose, 20 μg/mL of leupeptin, aprotinin, and chymostatin, and 200 μg/mL PMSF), aliquoted, and frozen at −80° C. until use. Typical binding assays used 1.0 μg/well protein.
Prepared membranes were resuspended in binding buffer (50 mM Tris, 10 mM MgCl2, 1 mM EDTA pH 7.4) at 10 μg/mL protein. Membranes (1.0 μg/well) were incubated with ^125I-MCP-1 (0.15 nM) in the absence or presence of unlabeled chemokine (465 nM) or a compound of Examples 1–11, 14, 16, 19, 22, 27–30, 33–34, or [bis-(4-chloro-phenyl)-methanesulfonyl]-acetic acid methyl ester (0.001 μM–40 μM) for 3 hours at room temperature in a 96-well plate (total volume 250 μL). The reaction was terminated by filtration using a 96-well plate harvester (Packard Filtermate 196 Harvester). Filters (Packard GF/C) were prewet with 0.3% PEI containing 0.5% BSA and washed 5 times with wash buffer (DPBS, 0.3 MnCl2, and 0.25% BSA) prior to reaction termination. After terminating the reaction, filters were washed 6 times with wash buffer, and allowed to dry overnight. Scintillation fluid (Packard's Micro Scint 20) was added to each well and radioactivity bound was determined by liquid scintillation spectrometry. Nonspecific binding was determined in the presence of 465 nM unlabeled MCP-1. The IC50's (μM) of the inhibition of the binding of the iodinated MCP-1 are set out in Table 2.

The mark [3] stands for this setting: 0.5 h, THP-1 cells, 30-minute incubation, stimulated with 33 nM human MCP-1, inhibition of the maximal MCP-1 response.
Where [4] appears, read: 300-19 cell membranes 1.0 μg/well, 125I-MCP-1 0.15 nM, 3 hours at room temperature, read-out: IC50 of the inhibition of the binding of the iodinated MCP-1.

Read-outs that look alike come from different tables or passages of the source.

For `O=C(CBr)CS(=O)(=O)C(c1ccc(Cl)cc1)c1ccc(Cl)cc1` [Example 3, 1-[Bis-(4-chloro-phenyl)-methanesulfonyl]-3-bromo-propan-2-one], the melting point is 122 to 123 °C. Moreover, in series [1] (setting [3]), the IC50 stood at 1.12 µM. Also, the IC50 in series [2] (setting [4]) worked out at 0.165 µM.

For the compound `O=S(=O)(CC(O)(O)C(F)(F)F)C(c1ccc(F)cc1)c1ccc(F)cc1` [Example 28, 3-[Bis(4-fluorophenyl)methanesulfonyl]-1,1,1-trifluoropropane-2,2-diol], the IC50 in series [1] (Homo sapiens, THP-1, 0.5 h) came to 0.417 µM; in series [2], 0.21 µM.

Compound `CC(=O)OCC(=O)CS(=O)(=O)C(c1ccc(Cl)cc1)c1ccc(Cl)cc1` showed a melting point of 57 to 60 °C.

`CC(C)(C)C(=O)CS(=O)(=O)C(c1ccc(Cl)cc1)c1ccc(Cl)cc1` registered a melting point of 128 to 130 °C.

`O=S(=O)(CC(O)(O)C(F)(F)F)C(c1ccc(C(F)(F)F)cc1)c1ccc(C(F)(F)F)cc1` [Example 29, 3-[Bis(4-trifluoromethyl-phenyl)methanesulfonyl]-1,1,1-trifluoropropane-2,2-diol]: the IC50 in series [2] (setting [4]) amounted to 3 µM.

`CC(=O)CCS(=O)(=O)C(c1ccc(Cl)cc1)c1ccc(Cl)cc1` registered a melting point of 103 to 105 °C.

`O=C(CC(=O)Nc1ccccc1Cl)CS(=O)(=O)C(c1ccc(Cl)cc1)c1ccc(Cl)cc1` [Example 23, 4-[Bis-(4-chloro-phenyl)-methanesulfonyl]-N-(2-chloro-phenyl)-3-oxo-butyramide] yielded a melting point of 92 to 95 °C. For the same compound, in series [1] (setting [3]), the IC50 was 1.52 µM.

Compound `O=C(CS(=O)(=O)C(c1ccc(Cl)cc1)c1ccc(Cl)cc1)c1ccco1` [Example 5, 2-[Bis-(4-chloro-phenyl)-methanesulfonyl]-1-furan-2-yl-ethanone] had a melting point of 138 to 139 °C. Moreover, the IC50 in series [1] (setting [3]) was 7.25 µM. Besides, the IC50 in series [2] (setting [4]) amounted to 2.55 µM.

`COCC(=O)CS(=O)(=O)C(c1ccc(Cl)cc1)c1ccc(Cl)cc1` [Example 14, 1-[Bis-(4-chloro-phenyl)-methanesulfonyl]-3-methoxy-propan-2-one] had a melting point of 124 to 125 °C. For the same compound, the IC50 in series [1] (Homo sapiens, THP-1, 0.5 h) came out at 3.9 µM. In series [2], this compound had an IC50 of 1.35 µM.

For `CN(C)C(=O)c1ccc(C(=O)CSC(c2ccc(Cl)cc2)c2ccc(Cl)cc2)s1`, the melting point fell in the range of 150 to 151 °C.

In turn, `O=C(CS(=O)(=O)Cc1ccccc1)CS(=O)(=O)C(c1ccc(Cl)cc1)c1ccc(Cl)cc1` [Example 27, 1-[Bis-(4-chloro-phenyl)-methanesulfonyl]-3-phenylmethanesulfonyl-propan-2-one] registered a melting point of 72 to 90 °C. Also, the IC50 in series [1] (setting [3]) amounted to 6.53 µM. Besides, the IC50 in series [2] (setting [4]) turned out to be 2.7 µM.

For `C/C=C/C(=O)CS(=O)(=O)C(c1ccc(Cl)cc1)c1ccc(Cl)cc1`, the melting point lay in the range of 114 to 116 °C.

The compound `CN(C)C(=O)c1ccc(C(=O)CS(=O)(=O)C(c2ccc(Cl)cc2)c2ccc(Cl)cc2)s1` [Example 18, 5-(2-[Bis-(4-chloro-phenyl)-methanesulfonyl]-acetyl)-thiophene-2-carboxylic acid dimethylamide] registered a melting point of 192 to 194 °C. In series [1] (setting [3]), the IC50 was found to be 5.2 µM.

As for `COC(=O)CC(=O)CS(=O)(=O)C(c1ccc(Cl)cc1)c1ccc(Cl)cc1` [Example 22, 4-[Bis-(4-chloro-phenyl)-methanesulfonyl]-3-oxo-butyric acid methyl ester], the melting point was 76 to 78 °C. The IC50 in series [1] (setting [3]) stood at 2.47 µM. Besides, the IC50 in series [2] (setting [4]) amounted to 1.27 µM.

Take `O=C(CS(=O)(=O)C(c1ccc(Cl)cc1)c1ccc(Cl)cc1)c1ccccn1` [Example 34, 2-[Bis-(4-chloro-phenyl)-methanesulfonyl]-1-pyridin-2-yl-ethanone]: the melting point fell in the range of 120 to 121 °C. The IC50 in series [2] (setting [4]) is 4.25 µM.

Regarding `CC(C)Cc1ccc(C(c2ccc(Cl)cc2)S(=O)(=O)CC(=O)C(F)(F)F)cc1` (stereo not shown), the melting point is 45 to 50 °C.

Regarding `CC(=O)CS(=O)(=O)C(c1ccc(Cl)cc1)c1ccc(Cl)cc1` [Example 1, 1-[Bis-(4-chloro-phenyl)-methanesulfonyl]-propan-2-one], the melting point lay in the range of 114 to 115 °C. Further, in series [1] (Homo sapiens, THP-1, 0.5 h), the IC50 was found to be 2.2 µM. In series [2], this compound came in with an IC50 of 1.15 µM.

In turn, `O=C(Cc1ccccc1)CS(=O)(=O)C(c1ccc(Cl)cc1)c1ccc(Cl)cc1` [Example 9, 1-[Bis-(4-chloro-phenyl)-methanesulfonyl]-3-phenyl-propan-2-one] came in with a melting point of 54 to 56 °C. In addition, the IC50 in series [1] (setting [3]) was 2.9 µM. For the same compound, the IC50 in series [2] (setting [4]) was 6.3 µM.

`O=S(=O)(CC(O)(O)C(F)(F)F)C(c1ccc(Cl)cc1)c1ccc(Cl)c(Cl)c1` (stereo not shown) [Example 30, 3-[(4-Chlorophenyl)-(3,4-dichlorophenyl)methanesulfonyl]-1,1,1-trifluoropropane-2,2-diol]: the IC50 in series [1] (setting [3]) amounted to 0.393 µM; in series [2] (setting [4]), 0.077 µM.

In turn, `Cn1ccnc1C(=O)CS(=O)(=O)C(c1ccc(Cl)cc1)c1ccc(Cl)cc1` [Example 16, 2-[Bis-(4-chloro-phenyl)-methanesulfonyl]-1-(1-methyl-1H-imidazol-2-yl)-ethanone] had a melting point of 160 to 161 °C. In addition, the IC50 in series [2] (setting [4]) is 12.7 µM.

Take `O=C(CC(F)(F)F)CS(=O)(=O)C(c1ccc(Cl)cc1)c1ccc(Cl)cc1`: the melting point is 48 to 50 °C.

`O=C(CCc1ccccc1)CS(=O)(=O)C(c1ccc(Cl)cc1)c1ccc(Cl)cc1` had a melting point of 106 to 107 °C.

With `O=C(CS(=O)(=O)C(c1ccc(Cl)cc1)c1ccc(Cl)cc1)c1cccs1` [Example 19, 2-[Bis-(4-chloro-phenyl)-methanesulfonyl]-1-thiophen-2-yl-ethanone], the melting point is 150 to 151 °C. The IC50 in series [2] (setting [4]) amounted to 6.15 µM.

Turning to `CCC(=O)CS(=O)(=O)C(c1ccc(Cl)cc1)c1ccc(Cl)cc1` [Example 2, 1-[Bis-(4-chloro-phenyl)-methanesulfonyl]-butan-2-one], the IC50 in series [1] (Homo sapiens, THP-1, 0.5 h) was 7.65 µM; in series [2], 7.37 µM.

In turn, `O=C(COc1ccc(F)cc1F)CS(=O)(=O)C(c1ccc(Cl)cc1)c1ccc(Cl)cc1` registered a melting point of 54 to 56 °C.

On to `COc1ccc(OCC(=O)CS(=O)(=O)C(c2ccc(Cl)cc2)c2ccc(Cl)cc2)cc1` [Example 11, 1-[Bis-(4-chloro-phenyl)-methanesulfonyl]-3-(4-methoxy-phenoxy)-propan-2-one], for which the melting point lay in the range of 116 to 117 °C. For the same compound, the IC50 in series [1] (setting [3]) is 4.75 µM. Further, the IC50 in series [2] (setting [4]) turned out to be 3.4 µM.

`O=C(COc1ccccc1)CS(=O)(=O)C(c1ccc(Cl)cc1)c1ccc(Cl)cc1` [Example 10, 1-[Bis-(4-chloro-phenyl)-methanesulfonyl]-3-phenoxy-propan-2-one] displayed a melting point of 110 to 112 °C. The IC50 in series [1] (setting [3]) came out at 0.984 µM. The IC50 in series [2] (setting [4]) is 3.45 µM.

For `CC#CC(=O)CS(=O)(=O)C(c1ccc(Cl)cc1)c1ccc(Cl)cc1` [Example 6, 1-[Bis-(4-chloro-phenyl)-methanesulfonyl]-pent-3-yn-2-one], the IC50 in series [1] (setting [3]) came to 1.34 µM.

`O=C(COc1ccc(Cl)cc1)CS(=O)(=O)C(c1ccc(Cl)cc1)c1ccc(Cl)cc1` [Example 12, 1-[Bis-(4-chloro-phenyl)-methanesulfonyl]-3-(4-chloro-phenoxy)-propan-2-one] registered a melting point of 105 to 107 °C. Further, in series [1] (setting [3]), the IC50 was 8.15 µM.

In turn, `O=C(Cc1ccc(F)cc1)CS(=O)(=O)C(c1ccc(Cl)cc1)c1ccc(Cl)cc1` [Example 33, 1-[Bis-(4-chloro-phenyl)-methanesulfonyl]-3-(4-fluoro-phenyl)-propan-2-one] showed a melting point of 106 to 107 °C. In addition, in series [2] (setting [4]), the IC50 amounted to 14.5 µM.
